Measurements: PMC12102759 (Protein Science : A Publication of the Protein Society, 2025)

System: PABPC1 PABC
Type: binding, human
Details: DMS-BM library, bait PABPC1 PABC, row aa = residue at this position; for DMS-derived PSSM value, position E10 / DMS-derived PSSM value, position E8 / DMS-derived PSSM value (averaged), position E8: E = wild type; for DMS-derived PSSM value (averaged), position A6 / DMS-derived PSSM value, position A6: A = wild type
[1] = prey ATXN2, TLNPNAKEFNPRSF(averaged) over the two overlapping peptides, L = wild type
[2] = prey ATXN2, TLNPNAKEFNPRSF(averaged) over the two overlapping peptides, F = wild type
[3] = prey ATXN2, peptide KSTLNPNAKEFNPRSF
[4] = prey ATXN2, TLNPNAKEFNPRSF(averaged) over the two overlapping peptides, N = wild type
[5] = prey ATXN2, peptide TLNPNAKEFNPRSFSQ, N = wild type
[6] = prey ATXN2, peptide KSTLNPNAKEFNPRSF, P = wild type
[7] = prey ATXN2, peptide TLNPNAKEFNPRSFSQ
[8] = prey ATXN2, peptide TLNPNAKEFNPRSFSQ, T = wild type
[9] = prey ATXN2, peptide TLNPNAKEFNPRSFSQ, L = wild type
[10] = prey ATXN2, TLNPNAKEFNPRSF(averaged) over the two overlapping peptides
[11] = prey ATXN2, peptide KSTLNPNAKEFNPRSF, K = wild type
[12] = prey ATXN2, peptide TLNPNAKEFNPRSFSQ, P = wild type
[13] = prey ATXN2, peptide KSTLNPNAKEFNPRSF, N = wild type
[14] = prey ATXN2, peptide KSTLNPNAKEFNPRSF, F = wild type
[15] = prey ATXN2, TLNPNAKEFNPRSF(averaged) over the two overlapping peptides, P = wild type
[16] = prey ATXN2, peptide TLNPNAKEFNPRSFSQ, S = wild type
[17] = prey ATXN2, peptide TLNPNAKEFNPRSFSQ, F = wild type

TLNPNAKEFNPRSF(averaged) L2P (TPNPNAKEFNPRSF)
DMS-derived PSSM value (averaged), position L2 [1]: 0.01878

KSTLNPNAKEFNPRSF S2Q (KQTLNPNAKEFNPRSF)
DMS-derived PSSM value, position S2 (prey ATXN2, peptide KSTLNPNAKEFNPRSF, S = wild type): 0.001157

TLNPNAKEFNPRSF(averaged) F9V (TLNPNAKEVNPRSF)
DMS-derived PSSM value (averaged), position F9 [2]: 0.0004395

KSTLNPNAKEFNPRSF E10D (KSTLNPNAKDFNPRSF)
DMS-derived PSSM value, position E10 [3]: 0

TLNPNAKEFNPRSF(averaged) N3P (TLPPNAKEFNPRSF)
DMS-derived PSSM value (averaged), position N3 [4]: 0

TLNPNAKEFNPRSFSQ N3L (TLLPNAKEFNPRSFSQ)
DMS-derived PSSM value, position N3 [5]: 0

KSTLNPNAKEFNPRSF P13G (KSTLNPNAKEFNGRSF)
DMS-derived PSSM value, position P13 [6]: 0.05991

TLNPNAKEFNPRSFSQ E8W (TLNPNAKWFNPRSFSQ)
DMS-derived PSSM value, position E8 [7]: 0

TLNPNAKEFNPRSFSQ T1P (PLNPNAKEFNPRSFSQ)
DMS-derived PSSM value, position T1 [8]: 0.04902

TLNPNAKEFNPRSFSQ L2Y (TYNPNAKEFNPRSFSQ)
DMS-derived PSSM value, position L2 [9]: 0.1104

TLNPNAKEFNPRSF(averaged) A6N (TLNPNNKEFNPRSF)
DMS-derived PSSM value (averaged), position A6 [10]: 0

TLNPNAKEFNPRSF(averaged) T1V (VLNPNAKEFNPRSF)
DMS-derived PSSM value (averaged), position T1 (prey ATXN2, TLNPNAKEFNPRSF(averaged) over the two overlapping peptides, T = wild type): 0.1224

KSTLNPNAKEFNPRSF K9P (KSTLNPNAPEFNPRSF)
DMS-derived PSSM value, position K9 [11]: 0.004179

TLNPNAKEFNPRSF(averaged) F9Q (TLNPNAKEQNPRSF)
DMS-derived PSSM value (averaged), position F9 [2]: 0

TLNPNAKEFNPRSF(averaged) F9A (TLNPNAKEANPRSF)
DMS-derived PSSM value (averaged), position F9 [2]: 0

TLNPNAKEFNPRSFSQ E8Y (TLNPNAKYFNPRSFSQ)
DMS-derived PSSM value, position E8 [7]: 0.04993

TLNPNAKEFNPRSFSQ N3S (TLSPNAKEFNPRSFSQ)
DMS-derived PSSM value, position N3 [5]: 0.4554

TLNPNAKEFNPRSF(averaged) A6S (TLNPNSKEFNPRSF)
DMS-derived PSSM value (averaged), position A6 [10]: 0.04153

TLNPNAKEFNPRSF(averaged) N5V (TLNPVAKEFNPRSF)
DMS-derived PSSM value (averaged), position N5 [4]: 0.05544

TLNPNAKEFNPRSFSQ P11N (TLNPNAKEFNNRSFSQ)
DMS-derived PSSM value, position P11 [12]: 0.04264

TLNPNAKEFNPRSFSQ T1Q (QLNPNAKEFNPRSFSQ)
DMS-derived PSSM value, position T1 [8]: 0.00769

TLNPNAKEFNPRSF(averaged) L2T (TTNPNAKEFNPRSF)
DMS-derived PSSM value (averaged), position L2 [1]: 0

TLNPNAKEFNPRSFSQ K7G (TLNPNAGEFNPRSFSQ)
DMS-derived PSSM value, position K7 (prey ATXN2, peptide TLNPNAKEFNPRSFSQ, K = wild type): 0.01102

KSTLNPNAKEFNPRSF K9L (KSTLNPNALEFNPRSF)
DMS-derived PSSM value, position K9 [11]: 0.07486

TLNPNAKEFNPRSFSQ P4G (TLNGNAKEFNPRSFSQ)
DMS-derived PSSM value, position P4 [12]: 0.0005247

KSTLNPNAKEFNPRSF N7F (KSTLNPFAKEFNPRSF)
DMS-derived PSSM value, position N7 [13]: 0.07049

TLNPNAKEFNPRSF(averaged) E8K (TLNPNAKKFNPRSF)
DMS-derived PSSM value (averaged), position E8 [10]: 0.03159

KSTLNPNAKEFNPRSF F16I (KSTLNPNAKEFNPRSI)
DMS-derived PSSM value, position F16 [14]: 0.0559

KSTLNPNAKEFNPRSF R14D (KSTLNPNAKEFNPDSF)
DMS-derived PSSM value, position R14 (prey ATXN2, peptide KSTLNPNAKEFNPRSF, R = wild type): 0

TLNPNAKEFNPRSF(averaged) P4F (TLNFNAKEFNPRSF)
DMS-derived PSSM value (averaged), position P4 [15]: 0.005863

KSTLNPNAKEFNPRSF K9H (KSTLNPNAHEFNPRSF)
DMS-derived PSSM value, position K9 [11]: 0.04428

KSTLNPNAKEFNPRSF P6F (KSTLNFNAKEFNPRSF)
DMS-derived PSSM value, position P6 [6]: 0

KSTLNPNAKEFNPRSF F11T (KSTLNPNAKETNPRSF)
DMS-derived PSSM value, position F11 [14]: 0

KSTLNPNAKEFNPRSF E10L (KSTLNPNAKLFNPRSF)
DMS-derived PSSM value, position E10 [3]: 0

TLNPNAKEFNPRSFSQ S15A (TLNPNAKEFNPRSFAQ)
DMS-derived PSSM value, position S15 [16]: 0.02541

KSTLNPNAKEFNPRSF E10V (KSTLNPNAKVFNPRSF)
DMS-derived PSSM value, position E10 [3]: 0.1837

TLNPNAKEFNPRSF(averaged) P4L (TLNLNAKEFNPRSF)
DMS-derived PSSM value (averaged), position P4 [15]: 0.1003

KSTLNPNAKEFNPRSF N7M (KSTLNPMAKEFNPRSF)
DMS-derived PSSM value, position N7 [13]: 0.02788

KSTLNPNAKEFNPRSF P6W (KSTLNWNAKEFNPRSF)
DMS-derived PSSM value, position P6 [6]: 0

TLNPNAKEFNPRSF(averaged) P4S (TLNSNAKEFNPRSF)
DMS-derived PSSM value (averaged), position P4 [15]: 0.01466

TLNPNAKEFNPRSF(averaged) S13P (TLNPNAKEFNPRPF)
DMS-derived PSSM value (averaged), position S13 (prey ATXN2, TLNPNAKEFNPRSF(averaged) over the two overlapping peptides, S = wild type): 0.06349

TLNPNAKEFNPRSFSQ F9L (TLNPNAKELNPRSFSQ)
DMS-derived PSSM value, position F9 [17]: 0

KSTLNPNAKEFNPRSF N7Y (KSTLNPYAKEFNPRSF)
DMS-derived PSSM value, position N7 [13]: 0.00548

KSTLNPNAKEFNPRSF N7L (KSTLNPLAKEFNPRSF)
DMS-derived PSSM value, position N7 [13]: 0.04259

TLNPNAKEFNPRSF(averaged) F14A (TLNPNAKEFNPRSA)
DMS-derived PSSM value (averaged), position F14 [2]: 0.04899

KSTLNPNAKEFNPRSF F16E (KSTLNPNAKEFNPRSE)
DMS-derived PSSM value, position F16 [14]: 0.01536

TLNPNAKEFNPRSF(averaged) F9D (TLNPNAKEDNPRSF)
DMS-derived PSSM value (averaged), position F9 [2]: 0.001318

TLNPNAKEFNPRSF(averaged) N10F (TLNPNAKEFFPRSF)
DMS-derived PSSM value (averaged), position N10 [4]: 0.02798

TLNPNAKEFNPRSFSQ F14Y (TLNPNAKEFNPRSYSQ)
DMS-derived PSSM value, position F14 [17]: 0.07249

TLNPNAKEFNPRSFSQ S13A (TLNPNAKEFNPRAFSQ)
DMS-derived PSSM value, position S13 [16]: 0.2244

TLNPNAKEFNPRSF(averaged) N3L (TLLPNAKEFNPRSF)
DMS-derived PSSM value (averaged), position N3 [4]: 0

KSTLNPNAKEFNPRSF E10H (KSTLNPNAKHFNPRSF)
DMS-derived PSSM value, position E10 [3]: 0.3776

KSTLNPNAKEFNPRSF F11R (KSTLNPNAKERNPRSF)
DMS-derived PSSM value, position F11 [14]: 0

TLNPNAKEFNPRSFSQ S13N (TLNPNAKEFNPRNFSQ)
DMS-derived PSSM value, position S13 [16]: 0.07115

KSTLNPNAKEFNPRSF N5W (KSTLWPNAKEFNPRSF)
DMS-derived PSSM value, position N5 [13]: 0

KSTLNPNAKEFNPRSF N5K (KSTLKPNAKEFNPRSF)
DMS-derived PSSM value, position N5 [13]: 0

KSTLNPNAKEFNPRSF P13E (KSTLNPNAKEFNERSF)
DMS-derived PSSM value, position P13 [6]: 0.006076

KSTLNPNAKEFNPRSF P13R (KSTLNPNAKEFNRRSF)
DMS-derived PSSM value, position P13 [6]: 0

KSTLNPNAKEFNPRSF N12T (KSTLNPNAKEFTPRSF)
DMS-derived PSSM value, position N12 [13]: 0.02601

TLNPNAKEFNPRSF(averaged) E8S (TLNPNAKSFNPRSF)
DMS-derived PSSM value (averaged), position E8 [10]: 0.04903

TLNPNAKEFNPRSF(averaged) E8D (TLNPNAKDFNPRSF)
DMS-derived PSSM value (averaged), position E8 [10]: 0

KSTLNPNAKEFNPRSF L4F (KSTFNPNAKEFNPRSF)
DMS-derived PSSM value, position L4 (prey ATXN2, peptide KSTLNPNAKEFNPRSF, L = wild type): 0

TLNPNAKEFNPRSFSQ P4N (TLNNNAKEFNPRSFSQ)
DMS-derived PSSM value, position P4 [12]: 0.001049

KSTLNPNAKEFNPRSF F16A (KSTLNPNAKEFNPRSA)
DMS-derived PSSM value, position F16 [14]: 0.08044

TLNPNAKEFNPRSFSQ F14L (TLNPNAKEFNPRSLSQ)
DMS-derived PSSM value, position F14 [17]: 0.08923

KSTLNPNAKEFNPRSF N12D (KSTLNPNAKEFDPRSF)
DMS-derived PSSM value, position N12 [13]: 0.009433

TLNPNAKEFNPRSFSQ A6I (TLNPNIKEFNPRSFSQ)
DMS-derived PSSM value, position A6 [7]: 0.03549

TLNPNAKEFNPRSFSQ L2F (TFNPNAKEFNPRSFSQ)
DMS-derived PSSM value, position L2 [9]: 0.1032

TLNPNAKEFNPRSFSQ A6W (TLNPNWKEFNPRSFSQ)
DMS-derived PSSM value, position A6 [7]: 0

TLNPNAKEFNPRSF(averaged) F14D (TLNPNAKEFNPRSD)
DMS-derived PSSM value (averaged), position F14 [2]: 0.01885
